Test results published in ChEMBL document CHEMBL4507264, “Data for DCP probe BAY-7598” (2021).

Key:
[1] = biological target: Tyrosine-protein kinase Mer (Homo sapiens) (UniProt Q12866); settings: Compound concentration 1000.0 nM
[2] = test system: Tyrosine-protein kinase ABL1 (Homo sapiens), P00519 [Y253F]; settings: Compound concentration 1000.0 nM
[3] = biological target: Casein kinase I isoform epsilon (Homo sapiens) (UniProt P49674); settings: Compound concentration 1000.0 nM
[4] = biological target: Wee1-like protein kinase 2 (Homo sapiens) (UniProt P0C1S8); settings: Compound concentration 1000.0 nM
[5] = biological target: Calcium/calmodulin-dependent protein kinase type II subunit delta (Homo sapiens) (UniProt Q13557); settings: Compound concentration 1000.0 nM
[6] = biological target: Dual specificity mitogen-activated protein kinase kinase 3 (Homo sapiens) (UniProt P46734); settings: Compound concentration 1000.0 nM
Chain of Dual specificity mitogen-activated protein kinase kinase 3 (Homo sapiens) (P46734 whole entry): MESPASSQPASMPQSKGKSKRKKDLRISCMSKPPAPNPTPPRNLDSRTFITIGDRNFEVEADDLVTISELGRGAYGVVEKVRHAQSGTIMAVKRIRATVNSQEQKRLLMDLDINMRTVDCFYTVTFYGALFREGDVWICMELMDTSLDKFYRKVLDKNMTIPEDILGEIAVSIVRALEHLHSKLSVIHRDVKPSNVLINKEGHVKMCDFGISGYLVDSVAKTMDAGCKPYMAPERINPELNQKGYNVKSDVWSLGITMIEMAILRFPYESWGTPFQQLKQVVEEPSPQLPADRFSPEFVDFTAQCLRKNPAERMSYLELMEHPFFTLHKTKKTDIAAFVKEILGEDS

[7] = biological target: Phosphatidylinositol 4-phosphate 5-kinase type-1 gamma (Homo sapiens) (UniProt O60331); settings: Compound concentration 1000.0 nM
[8] = biological target: Ankyrin repeat and protein kinase domain-containing protein 1 (Homo sapiens) (UniProt Q8NFD2); settings: Compound concentration 1000.0 nM
[9] = test system: Phosphatidylinositol 4,5-bisphosphate 3-kinase catalytic subunit alpha isoform (Homo sapiens), P42336 [E542K]; settings: Compound concentration 1000.0 nM
[10] = biological target: Casein kinase I isoform alpha-like (Homo sapiens) (UniProt Q8N752); settings: Compound concentration 1000.0 nM
[11] = biological target: Kappa-type opioid receptor (Homo sapiens) (UniProt P41145); settings: Compound concentration 10.0 uM
Chain of Kappa-type opioid receptor (Homo sapiens) (P41145 whole entry): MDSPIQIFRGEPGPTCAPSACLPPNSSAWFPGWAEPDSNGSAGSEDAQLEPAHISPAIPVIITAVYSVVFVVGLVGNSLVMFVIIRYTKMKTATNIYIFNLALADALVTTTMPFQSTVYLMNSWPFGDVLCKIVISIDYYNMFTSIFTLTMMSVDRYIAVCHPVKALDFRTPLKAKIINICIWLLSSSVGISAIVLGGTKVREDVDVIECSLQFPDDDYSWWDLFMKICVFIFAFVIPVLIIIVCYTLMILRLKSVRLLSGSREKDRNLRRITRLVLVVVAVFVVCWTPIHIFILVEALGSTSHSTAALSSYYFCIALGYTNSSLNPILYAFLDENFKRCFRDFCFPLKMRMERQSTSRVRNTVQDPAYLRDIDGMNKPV

[12] = biological target: Calcium/calmodulin-dependent protein kinase type 1D (Homo sapiens) (UniProt Q8IU85); settings: Compound concentration 1000.0 nM
[13] = biological target: Mitogen-activated protein kinase kinase kinase 2 (Homo sapiens) (UniProt Q9Y2U5); settings: Compound concentration 1000.0 nM
[14] = biological target: Ribosomal protein S6 kinase alpha-5 (Homo sapiens) (UniProt O75582); settings: Compound concentration 1000.0 nM
[15] = biological target: Mitogen-activated protein kinase kinase kinase 13 (Homo sapiens) (UniProt O43283); settings: Compound concentration 1000.0 nM
[16] = biological target: Dual specificity mitogen-activated protein kinase kinase 6 (Homo sapiens) (UniProt P52564); settings: Compound concentration 1000.0 nM
[17] = biological target: Bone morphogenetic protein receptor type-1A (Homo sapiens) (UniProt P36894); settings: Compound concentration 1000.0 nM
[18] = biological target: Serine/threonine-protein kinase MAK (Homo sapiens) (UniProt P20794); settings: Compound concentration 1000.0 nM
[19] = biological target: Serine/threonine-protein kinase WNK1 (Homo sapiens) (UniProt Q9H4A3); settings: Compound concentration 1000.0 nM
Chain of Serine/threonine-protein kinase WNK1 (Homo sapiens) (Q9H4A3 whole entry, looked up): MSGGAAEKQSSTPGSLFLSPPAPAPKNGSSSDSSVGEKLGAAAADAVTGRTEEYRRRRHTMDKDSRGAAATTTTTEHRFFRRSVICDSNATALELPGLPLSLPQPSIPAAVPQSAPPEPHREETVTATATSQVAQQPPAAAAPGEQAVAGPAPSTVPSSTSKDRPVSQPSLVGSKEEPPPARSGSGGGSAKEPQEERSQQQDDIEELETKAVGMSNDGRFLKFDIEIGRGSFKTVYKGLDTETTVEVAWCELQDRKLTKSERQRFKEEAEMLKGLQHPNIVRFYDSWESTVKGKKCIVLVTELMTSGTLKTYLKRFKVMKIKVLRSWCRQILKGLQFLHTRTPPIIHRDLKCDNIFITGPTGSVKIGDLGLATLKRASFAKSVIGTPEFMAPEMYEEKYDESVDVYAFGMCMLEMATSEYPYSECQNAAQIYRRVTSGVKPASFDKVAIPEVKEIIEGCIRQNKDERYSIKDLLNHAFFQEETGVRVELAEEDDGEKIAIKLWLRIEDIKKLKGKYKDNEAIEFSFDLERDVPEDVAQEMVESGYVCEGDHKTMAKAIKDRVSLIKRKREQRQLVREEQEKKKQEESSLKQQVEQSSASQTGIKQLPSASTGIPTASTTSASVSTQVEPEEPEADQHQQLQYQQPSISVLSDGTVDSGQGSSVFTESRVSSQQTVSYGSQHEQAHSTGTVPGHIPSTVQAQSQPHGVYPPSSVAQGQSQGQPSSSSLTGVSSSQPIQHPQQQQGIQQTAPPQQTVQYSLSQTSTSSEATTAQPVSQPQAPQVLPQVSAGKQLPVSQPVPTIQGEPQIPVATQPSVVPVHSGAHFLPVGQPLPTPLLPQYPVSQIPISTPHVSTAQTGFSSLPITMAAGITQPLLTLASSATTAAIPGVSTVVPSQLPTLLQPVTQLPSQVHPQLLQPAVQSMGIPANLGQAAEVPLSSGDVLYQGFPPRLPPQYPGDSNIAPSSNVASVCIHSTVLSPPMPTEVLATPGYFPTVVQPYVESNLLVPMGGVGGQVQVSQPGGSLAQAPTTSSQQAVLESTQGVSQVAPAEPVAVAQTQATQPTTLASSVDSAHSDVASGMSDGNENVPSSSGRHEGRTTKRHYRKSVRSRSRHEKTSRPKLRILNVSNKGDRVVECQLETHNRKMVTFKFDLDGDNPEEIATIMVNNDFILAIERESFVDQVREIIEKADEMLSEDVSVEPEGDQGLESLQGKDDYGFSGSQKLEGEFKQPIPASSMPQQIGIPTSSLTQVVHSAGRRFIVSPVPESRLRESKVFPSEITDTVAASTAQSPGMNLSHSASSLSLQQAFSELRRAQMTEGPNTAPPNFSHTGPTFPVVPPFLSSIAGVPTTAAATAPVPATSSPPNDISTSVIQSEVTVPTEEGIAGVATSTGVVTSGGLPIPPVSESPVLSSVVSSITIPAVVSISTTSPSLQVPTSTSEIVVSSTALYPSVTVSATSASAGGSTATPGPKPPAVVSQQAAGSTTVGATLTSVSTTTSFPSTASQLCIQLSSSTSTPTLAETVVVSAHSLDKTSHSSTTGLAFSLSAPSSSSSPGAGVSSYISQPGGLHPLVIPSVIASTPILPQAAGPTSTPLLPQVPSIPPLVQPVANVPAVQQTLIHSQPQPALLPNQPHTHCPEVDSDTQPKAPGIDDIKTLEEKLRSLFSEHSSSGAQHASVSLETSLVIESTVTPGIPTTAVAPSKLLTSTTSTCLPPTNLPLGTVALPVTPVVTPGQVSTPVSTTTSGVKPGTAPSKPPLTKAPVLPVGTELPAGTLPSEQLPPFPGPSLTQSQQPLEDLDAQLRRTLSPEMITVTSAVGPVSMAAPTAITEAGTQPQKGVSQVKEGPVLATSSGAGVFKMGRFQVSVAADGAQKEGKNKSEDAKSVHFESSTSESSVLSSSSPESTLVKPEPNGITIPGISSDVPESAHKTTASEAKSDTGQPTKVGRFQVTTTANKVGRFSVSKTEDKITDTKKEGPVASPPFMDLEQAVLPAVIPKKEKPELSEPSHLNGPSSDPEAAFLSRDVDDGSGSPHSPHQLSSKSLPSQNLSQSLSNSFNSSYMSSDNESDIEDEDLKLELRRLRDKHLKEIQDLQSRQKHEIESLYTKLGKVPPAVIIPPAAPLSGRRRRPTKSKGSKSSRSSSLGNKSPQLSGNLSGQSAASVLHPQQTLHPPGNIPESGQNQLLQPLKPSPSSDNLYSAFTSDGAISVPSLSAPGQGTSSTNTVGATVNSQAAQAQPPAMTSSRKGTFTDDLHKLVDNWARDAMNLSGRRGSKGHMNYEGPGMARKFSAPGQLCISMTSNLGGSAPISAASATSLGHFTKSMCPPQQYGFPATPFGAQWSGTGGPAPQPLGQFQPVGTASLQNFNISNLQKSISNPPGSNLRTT

[20] = biological target: Serine/threonine-protein kinase 38-like (Homo sapiens) (UniProt Q9Y2H1); settings: Compound concentration 1000.0 nM
[21] = biological target: Serine/threonine-protein kinase Sgk1 (Homo sapiens) (UniProt O00141); settings: Compound concentration 1000.0 nM
[22] = test system: Tyrosine-protein kinase ABL1 (Homo sapiens), P00519 [T315I]; settings: Compound concentration 1000.0 nM
[23] = test system: Tyrosine-protein kinase ABL1 (Homo sapiens), P00519 [F317I]; settings: Compound concentration 1000.0 nM
[24] = biological target: Serine/threonine-protein kinase LATS2 (Homo sapiens) (UniProt Q9NRM7); settings: Compound concentration 1000.0 nM
Chain of Serine/threonine-protein kinase LATS2 (Homo sapiens) (Q9NRM7 whole entry): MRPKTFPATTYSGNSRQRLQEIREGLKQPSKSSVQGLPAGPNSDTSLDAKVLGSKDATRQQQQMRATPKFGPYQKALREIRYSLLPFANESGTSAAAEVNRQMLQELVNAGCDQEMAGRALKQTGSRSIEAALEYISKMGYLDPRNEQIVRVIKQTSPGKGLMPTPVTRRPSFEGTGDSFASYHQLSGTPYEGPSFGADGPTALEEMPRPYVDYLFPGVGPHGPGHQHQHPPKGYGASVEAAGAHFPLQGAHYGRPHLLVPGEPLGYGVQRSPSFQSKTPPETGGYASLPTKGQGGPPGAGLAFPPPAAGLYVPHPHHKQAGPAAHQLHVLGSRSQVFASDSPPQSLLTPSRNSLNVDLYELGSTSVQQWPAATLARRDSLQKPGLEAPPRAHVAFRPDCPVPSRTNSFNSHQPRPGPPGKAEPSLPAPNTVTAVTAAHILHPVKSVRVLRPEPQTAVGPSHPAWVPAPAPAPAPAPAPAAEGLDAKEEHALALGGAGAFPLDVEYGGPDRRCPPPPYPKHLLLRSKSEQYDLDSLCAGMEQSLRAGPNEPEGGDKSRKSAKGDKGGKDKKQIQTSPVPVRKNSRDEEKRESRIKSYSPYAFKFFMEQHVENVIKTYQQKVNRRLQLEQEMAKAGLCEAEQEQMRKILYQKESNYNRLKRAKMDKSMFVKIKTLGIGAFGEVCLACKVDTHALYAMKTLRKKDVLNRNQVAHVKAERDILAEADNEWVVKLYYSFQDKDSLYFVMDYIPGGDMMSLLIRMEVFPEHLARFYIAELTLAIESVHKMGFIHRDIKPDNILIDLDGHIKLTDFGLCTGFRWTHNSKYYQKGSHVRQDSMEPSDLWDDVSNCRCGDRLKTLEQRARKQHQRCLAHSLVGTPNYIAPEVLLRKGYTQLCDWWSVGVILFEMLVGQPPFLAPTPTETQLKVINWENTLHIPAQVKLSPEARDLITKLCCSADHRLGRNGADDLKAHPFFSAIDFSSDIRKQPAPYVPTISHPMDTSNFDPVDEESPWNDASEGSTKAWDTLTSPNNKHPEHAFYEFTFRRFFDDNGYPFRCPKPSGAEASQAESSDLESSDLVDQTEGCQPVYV

[25] = biological target: Serine/threonine-protein kinase PAK 1 (Homo sapiens) (UniProt Q13153); settings: Compound concentration 1000.0 nM
[26] = biological target: Serine/threonine-protein kinase ULK2 (Homo sapiens) (UniProt Q8IYT8); settings: Compound concentration 1000.0 nM
[27] = biological target: Serine/threonine-protein kinase DCLK2 (Homo sapiens) (UniProt Q8N568); settings: Compound concentration 1000.0 nM
[28] = biological target: Interleukin-1 receptor-associated kinase 1 (Homo sapiens) (UniProt P51617); settings: Compound concentration 1000.0 nM
[29] = biological target: Mitogen-activated protein kinase 8 (Homo sapiens) (UniProt P45983); settings: Compound concentration 1000.0 nM
[30] = biological target: Serine/threonine-protein kinase pim-2 (Homo sapiens) (UniProt Q9P1W9); settings: Compound concentration 1000.0 nM
[31] = biological target: Dual specificity mitogen-activated protein kinase kinase 1 (Homo sapiens) (UniProt Q02750); settings: Compound concentration 1000.0 nM
[32] = biological target: Inhibitor of nuclear factor kappa-B kinase subunit epsilon (Homo sapiens) (UniProt Q14164); settings: Compound concentration 1000.0 nM
[33] = test system: Phosphatidylinositol 4,5-bisphosphate 3-kinase catalytic subunit alpha isoform (Homo sapiens), P42336 [I800L]; settings: Compound concentration 1000.0 nM
[34] = biological target: cAMP-dependent protein kinase catalytic subunit alpha (Homo sapiens) (UniProt P17612); settings: Compound concentration 1000.0 nM
[35] = biological target: Inhibitor of nuclear factor kappa-B kinase subunit alpha (Homo sapiens) (UniProt O15111); settings: Compound concentration 1000.0 nM
[36] = biological target: Serine/threonine-protein kinase PAK 2 (Homo sapiens) (UniProt Q13177); settings: Compound concentration 1000.0 nM
[37] = biological target: Serine/threonine-protein kinase NIM1 (Homo sapiens) (UniProt Q8IY84); settings: Compound concentration 1000.0 nM
[38] = biological target: 5-hydroxytryptamine receptor 6 (Homo sapiens) (UniProt P50406); settings: Compound concentration 10.0 uM
[39] = biological target: Maternal embryonic leucine zipper kinase (Homo sapiens) (UniProt Q14680); settings: Compound concentration 1000.0 nM
[40] = biological target: Tyrosine-protein kinase Yes (Homo sapiens) (UniProt P07947); settings: Compound concentration 1000.0 nM
[41] = biological target: Serine/threonine-protein kinase Nek2 (Homo sapiens) (UniProt P51955); settings: Compound concentration 1000.0 nM
[42] = biological target: Ribosomal protein S6 kinase alpha-3 (Homo sapiens) (UniProt P51812); settings: Compound concentration 1000.0 nM
[43] = biological target: Tyrosine-protein kinase Fes/Fps (Homo sapiens) (UniProt P07332); settings: Compound concentration 1000.0 nM
Chain of Tyrosine-protein kinase Fes/Fps (Homo sapiens) (P07332 whole entry): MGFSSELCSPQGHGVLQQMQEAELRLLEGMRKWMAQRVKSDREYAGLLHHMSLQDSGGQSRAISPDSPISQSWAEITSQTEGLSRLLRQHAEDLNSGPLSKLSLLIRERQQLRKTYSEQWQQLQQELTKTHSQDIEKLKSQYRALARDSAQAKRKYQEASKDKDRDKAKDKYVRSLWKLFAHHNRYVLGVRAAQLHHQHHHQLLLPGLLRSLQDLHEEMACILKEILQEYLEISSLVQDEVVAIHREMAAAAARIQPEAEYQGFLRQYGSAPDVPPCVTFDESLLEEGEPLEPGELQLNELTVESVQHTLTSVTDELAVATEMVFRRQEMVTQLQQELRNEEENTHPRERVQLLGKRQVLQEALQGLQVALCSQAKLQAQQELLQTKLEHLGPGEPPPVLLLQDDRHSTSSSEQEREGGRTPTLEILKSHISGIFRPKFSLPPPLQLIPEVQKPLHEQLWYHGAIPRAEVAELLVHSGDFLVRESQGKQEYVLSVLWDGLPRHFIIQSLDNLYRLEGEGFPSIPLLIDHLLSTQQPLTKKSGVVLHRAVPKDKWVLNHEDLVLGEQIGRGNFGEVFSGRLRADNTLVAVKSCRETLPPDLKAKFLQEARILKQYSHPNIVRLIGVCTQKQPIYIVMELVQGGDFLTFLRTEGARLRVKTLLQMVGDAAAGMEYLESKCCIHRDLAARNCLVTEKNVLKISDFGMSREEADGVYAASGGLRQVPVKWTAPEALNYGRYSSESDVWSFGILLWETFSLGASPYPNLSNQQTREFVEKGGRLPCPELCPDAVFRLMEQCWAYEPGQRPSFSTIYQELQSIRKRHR

[44] = biological target: Mitogen-activated protein kinase 4 (Homo sapiens) (UniProt P31152); settings: Compound concentration 1000.0 nM
[45] = biological target: Ephrin type-A receptor 2 (Homo sapiens) (UniProt P29317); settings: Compound concentration 1000.0 nM

For `O=C(O)[C@H]1[C@H](Cn2nnc3ccccc3c2=O)CC[C@@H]1C(=O)c1ccc(OCCC2CCOCC2)cc1` [BAY-7598], the residual activity [1] was 61%, the residual activity [2] was 100% and the residual activity [3] was 100%. It also gave a residual activity [4] of 100%, a residual activity [5] of 86% and a residual activity [6] of 90%. The residual activity [7] was 100%, the residual activity [8] was 100% and the residual activity [9] was 71%. The residual activity [10] was 100%, the inhibition [11] was -3.04% and the residual activity [12] was 96%. For the same compound, the residual activity [13] was 100%, the residual activity [14] was 100% and the residual activity [15] was 96%. The residual activity [16] was 100%, the residual activity [17] was 61% and the residual activity [18] was 95%. The residual activity [19] was 100%, the residual activity [20] was 96% and the residual activity [21] was 100%. The residual activity [22] was 100%, the residual activity [23] was 100% and the residual activity [24] was 100%. The residual activity [25] was 83%, the residual activity [26] was 100% and the residual activity [27] was 79%. It also gave a residual activity [28] of 70%, a residual activity [29] of 72% and a residual activity [30] of 96%. It also gave a residual activity [31] of 100%, a residual activity [32] of 90% and a residual activity [33] of 73%. The residual activity [34] was 97%, the residual activity [35] was 100% and the residual activity [36] was 69%. For the same compound, the residual activity [37] was 93%, the inhibition [38] was 16.6% and the residual activity [39] was 96%. For the same compound, the residual activity [40] was 100%, the residual activity [41] was 100% and the residual activity [42] was 83%. The residual activity [43] was 100%, the residual activity [44] was 82% and the residual activity [45] was 93%.
In the case of `O=C(O)[C@@H]1[C@@H](Cn2nnc3ccccc3c2=O)CC[C@H]1C(=O)c1ccc(OCCC2CCOCC2)cc1` [BAY-694], the residual activity [1] is reported as 100%, the residual activity [2] is reported as 100% and the residual activity [3] is reported as 90%. The residual activity [4] was 100%, the residual activity [5] was 100% and the residual activity [6] was 92%. It also gave a residual activity [7] of 100%, a residual activity [8] of 100% and a residual activity [9] of 62%. It also gave a residual activity [10] of 100%, an inhibition [11] of 8.5% and a residual activity [12] of 91%. The residual activity [13] was 100%, the residual activity [14] was 100% and the residual activity [15] was 70%. For the same compound, the residual activity [16] was 100%, the residual activity [17] was 100% and the residual activity [18] was 78%. For the same compound, the residual activity [19] was 100%, the residual activity [20] was 100% and the residual activity [21] was 74%. For the same compound, the residual activity [22] was 100%, the residual activity [23] was 100% and the residual activity [24] was 100%. It also gave a residual activity [25] of 95%, a residual activity [26] of 90% and a residual activity [27] of 87%. The residual activity [28] was 82%, the residual activity [29] was 100% and the residual activity [30] was 94%. For the same compound, the residual activity [31] was 81%, the residual activity [32] was 100% and the residual activity [33] was 34%. It also gave a residual activity [34] of 90%, a residual activity [35] of 100% and a residual activity [36] of 82%. For the same compound, the residual activity [37] was 73%, the inhibition [38] was 26.9% and the residual activity [39] was 85%. It also gave a residual activity [40] of 100%, a residual activity [41] of 100% and a residual activity [42] of 85%. The residual activity [43] was 100%, the residual activity [44] was 100% and the residual activity [45] was 100%.
